Where “and” joins values, the source holds several entries; their conditions need not be identical. Equal entries are not always repeated.
Experiments:
[1] = xn = mol fraction of the nth substance listed; settings: 100 kPa, Liquid, Vibrating tube method
[2] = excess molar enthalpy (molar enthalpy of mixing); xn = mol fraction of the nth substance listed; settings: 100 kPa, Liquid, Calvet calorimetry

CCC1CCC(=O)O1 (stereo not given) [2(3H)-furanone, 5-ethyldihydro-] + O
Settings | excess molar enthalpy, [2] | mass density, [1]
288.15 K, x1 = 0.000808 | -0.0011 kcal/mol | 999.463 kg/m3 and 999.462 kg/m3
288.15 K, x1 = 0.001615 | -0.00217 kcal/mol | 999.823 kg/m3
288.15 K, x1 = 0.001616 | -0.00217 kcal/mol | 999.824 kg/m3
288.15 K, x1 = 0.002421 | -0.00322 kcal/mol | 1000.19 kg/m3
288.15 K, x1 = 0.002422 | -0.00321 kcal/mol | 1000.19 kg/m3
288.15 K, x1 = 0.003226 | -0.00418 kcal/mol | 1000.55 kg/m3 and 1000.54 kg/m3
288.15 K, x1 = 0.004029 | -0.00515 kcal/mol | 1000.9 kg/m3
288.15 K, x1 = 0.004831 | -0.00608 kcal/mol | 1001.26 kg/m3
288.15 K, x1 = 0.004832 | -0.00607 kcal/mol | 1001.26 kg/m3
298.15 K, x1 = 0.000808 | -0.000746 kcal/mol and -0.000743 kcal/mol | 997.357 kg/m3 and 997.355 kg/m3
298.15 K, x1 = 0.001615 | -0.00146 kcal/mol | 997.666 kg/m3
298.15 K, x1 = 0.002421 | -0.00215 kcal/mol | 997.974 kg/m3
298.15 K, x1 = 0.002422 | -0.00215 kcal/mol | 997.975 kg/m3
298.15 K, x1 = 0.003226 | -0.00277 kcal/mol and -0.00278 kcal/mol | 998.276 kg/m3
298.15 K, x1 = 0.004029 | -0.00339 kcal/mol and -0.0034 kcal/mol | 998.58 kg/m3
298.15 K, x1 = 0.004831 | -0.004 kcal/mol | 998.888 kg/m3
298.15 K, x1 = 0.004832 | -0.00401 kcal/mol | 998.888 kg/m3
308.15 K, x1 = 0.000809 | -0.000394 kcal/mol | 994.296 kg/m3
308.15 K, x1 = 0.001616 | -0.000758 kcal/mol | 994.558 kg/m3
308.15 K, x1 = 0.001617 | -0.000762 kcal/mol | 994.559 kg/m3
308.15 K, x1 = 0.002422 | -0.00109 kcal/mol | 994.819 kg/m3
308.15 K, x1 = 0.002423 | -0.0011 kcal/mol | 994.819 kg/m3
308.15 K, x1 = 0.003227 | -0.00141 kcal/mol | 995.082 kg/m3
308.15 K, x1 = 0.003228 | -0.0014 kcal/mol | 995.075 kg/m3
308.15 K, x1 = 0.004031 | -0.00169 kcal/mol | 995.334 kg/m3
308.15 K, x1 = 0.004032 | -0.00169 kcal/mol | 995.334 kg/m3
308.15 K, x1 = 0.004834 | -0.00193 kcal/mol | 995.586 kg/m3
308.15 K, x1 = 0.004835 | -0.00196 kcal/mol | 995.586 kg/m3
318.15 K, x1 = 0.000808 | -4.92e-05 kcal/mol | 990.434 kg/m3
318.15 K, x1 = 0.001615 | -7.07e-05 kcal/mol | 990.653 kg/m3
318.15 K, x1 = 0.001616 | -7.12e-05 kcal/mol | 990.654 kg/m3
318.15 K, x1 = 0.002421 | -6.91e-05 kcal/mol | 990.873 kg/m3
318.15 K, x1 = 0.002422 | -6.79e-05 kcal/mol | 990.873 kg/m3
318.15 K, x1 = 0.003226 | -4.04e-05 kcal/mol | 991.088 kg/m3
318.15 K, x1 = 0.003227 | -4.28e-05 kcal/mol | 991.089 kg/m3
318.15 K, x1 = 0.004029 | 8.13e-06 kcal/mol | 991.301 kg/m3
318.15 K, x1 = 0.00403 | 1.51e-05 kcal/mol | 991.301 kg/m3
318.15 K, x1 = 0.004832 | 8.6e-05 kcal/mol | 991.512 kg/m3
318.15 K, x1 = 0.004833 | 9.01e-05 kcal/mol | 991.512 kg/m3

CC1CCCC(=O)O1 (stereo not given) [2H-pyran-2-one, tetrahydro-6-methyl-] + O
Settings | excess molar enthalpy, [2] | mass density, [1]
288.15 K, x1 = 0.001653 | -0.00342 kcal/mol | 999.935 kg/m3
288.15 K, x1 = 0.002149 | -0.00437 kcal/mol | 1000.17 kg/m3
288.15 K, x1 = 0.002478 | -0.00505 kcal/mol | 1000.35 kg/m3
288.15 K, x1 = 0.002643 | -0.00535 kcal/mol | 1000.42 kg/m3
288.15 K, x1 = 0.003302 | -0.0066 kcal/mol and -0.00666 kcal/mol | 1000.74 kg/m3 and 1000.76 kg/m3
288.15 K, x1 = 0.004124 | -0.00818 kcal/mol | 1001.15 kg/m3
288.15 K, x1 = 0.004945 | -0.00973 kcal/mol | 1001.54 kg/m3
298.15 K, x1 = 0.001158 | -0.00194 kcal/mol | 997.57 kg/m3
298.15 K, x1 = 0.001653 | -0.00273 kcal/mol | 997.788 kg/m3
298.15 K, x1 = 0.002147 | -0.00352 kcal/mol | 998.009 kg/m3
298.15 K, x1 = 0.002641 | -0.00431 kcal/mol | 998.225 kg/m3
298.15 K, x1 = 0.0033 | -0.00534 kcal/mol | 998.509 kg/m3
298.15 K, x1 = 0.003306 | -0.00541 kcal/mol | 998.52 kg/m3
298.15 K, x1 = 0.003307 | -0.00536 kcal/mol | 998.507 kg/m3
298.15 K, x1 = 0.004125 | -0.00661 kcal/mol | 998.876 kg/m3
298.15 K, x1 = 0.004129 | -0.00669 kcal/mol | 998.875 kg/m3
298.15 K, x1 = 0.004131 | -0.00664 kcal/mol | 998.861 kg/m3
298.15 K, x1 = 0.004946 | -0.0079 kcal/mol | 999.23 kg/m3
298.15 K, x1 = 0.004951 | -0.00787 kcal/mol | 999.209 kg/m3
298.15 K, x1 = 0.004953 | -0.00781 kcal/mol | 999.206 kg/m3
308.15 K, x1 = 0.001656 | -0.00216 kcal/mol | 994.712 kg/m3
308.15 K, x1 = 0.002482 | -0.00315 kcal/mol | 995.04 kg/m3
308.15 K, x1 = 0.003307 | -0.00409 kcal/mol and -0.00415 kcal/mol | 995.379 kg/m3 and 995.363 kg/m3
308.15 K, x1 = 0.00413 | -0.00511 kcal/mol | 995.684 kg/m3
308.15 K, x1 = 0.004131 | -0.00506 kcal/mol | 995.714 kg/m3
308.15 K, x1 = 0.004953 | -0.00603 kcal/mol | 995.986 kg/m3
308.15 K, x1 = 0.004954 | -0.00601 kcal/mol | 996.02 kg/m3
318.15 K, x1 = 0.001655 | -0.00147 kcal/mol and -0.00148 kcal/mol | 990.83 kg/m3 and 990.824 kg/m3
318.15 K, x1 = 0.00248 | -0.0022 kcal/mol | 991.131 kg/m3
318.15 K, x1 = 0.002481 | -0.00221 kcal/mol | 991.124 kg/m3
318.15 K, x1 = 0.003305 | -0.0029 kcal/mol | 991.433 kg/m3
318.15 K, x1 = 0.003306 | -0.00293 kcal/mol | 991.423 kg/m3
318.15 K, x1 = 0.004127 | -0.0036 kcal/mol | 991.726 kg/m3
318.15 K, x1 = 0.004129 | -0.00363 kcal/mol | 991.723 kg/m3
318.15 K, x1 = 0.004948 | -0.00429 kcal/mol | 992.021 kg/m3
318.15 K, x1 = 0.004952 | -0.00432 kcal/mol | 992.018 kg/m3

Source: the NIST ThermoML archive (doi:10.1021/acs.jced.8b01146)
